The target in series [1] is T1, Human Neuropeptide Y2 Receptor (Homo sapiens, UniProt P49146).
T1 construct: purchased CHEMICON HTS066M
T1 sequence (P49146 1-381): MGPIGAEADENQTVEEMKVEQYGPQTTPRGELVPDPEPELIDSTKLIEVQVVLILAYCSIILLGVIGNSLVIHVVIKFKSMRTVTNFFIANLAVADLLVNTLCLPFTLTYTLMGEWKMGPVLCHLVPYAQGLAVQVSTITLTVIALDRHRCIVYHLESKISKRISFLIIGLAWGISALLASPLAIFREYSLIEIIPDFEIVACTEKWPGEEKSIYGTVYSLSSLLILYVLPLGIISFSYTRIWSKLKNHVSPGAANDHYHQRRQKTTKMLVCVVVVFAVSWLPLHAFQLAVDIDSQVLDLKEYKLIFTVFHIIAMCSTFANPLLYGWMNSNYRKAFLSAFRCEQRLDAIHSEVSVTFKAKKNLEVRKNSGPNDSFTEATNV
Briefly: Radioligand binding competition assay (RLB). To be noted: Table 3, 125I-PYY(1-36) competition; read-out: Ki. A digest of the protocol:
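Peptides were serially diluted from 1 mM DMSO stocks and competed for radioligand binding to receptor membranes (0.5 μg/well) over 2 h at room temperature, pH 7.4 HEPES buffer. Bound radioactivity on filters was counted by scintillation, and IC50 was derived by nonlinear regression.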

A short description of another series: Solubility determination. The note with it: for Sol6: pH 6; for Sol7: pH 7. A digest of the protocol: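 Sample: TFA-salt peptide at 10 mg/ml target in 0.1 M Na diphosphate, pH 6.4 or 7.0, shaken 2 h RT, filtered, diluted to 1 mg/ml.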

*1 amine or outer side, *2 acyl side, *3 side chain or, on linkers, in order; H or OH if unused. Where a SMILES comes first, the peptide text is derived from it. Side-chain parts run from the residue outwards. The star is where a group is joined. C18 diacid = O=C(O)CCCCCCCCCCCCCCCCC(=O)*; γGlu = O=C(O)[C@H](CCC(=O)[*:2])N[*:1]; Isovaleryl = CC(C)CC(=O)*; Ahx = NCCCCCC(=O)O

As usually defined, the Ki is a dissociation constant, usually derived from enzyme kinetics or from competition with a known ligand.

Turning to `CC[C@H](C)[C@H](NC(=O)[C@H](CCC(=O)O)NC(=O)[C@H](CCC(=O)O)NC(=O)[C@@H]1CCCN1C(=O)[C@H](CCC(=O)O)NC(=O)[C@H](C)NC(=O)[C@H](C)NC(=O)[C@H](C)NC(=O)[C@H](CCC(=O)O)NC(=O)[C@@H]1CCCN1C(=O)[C@H](CCCCNC(=O)CCCCCNC(=O)CC[C@H](NC(=O)CCCCCCCCCCCCCCCCC(=O)O)C(=O)O)NC(=O)[C@H](CCC(=O)O)NC(=O)[C@@H]1CCCN1C(=O)[C@H](C)NC(=O)CC(C)C)C(=O)N[C@@H](CCC(N)=O)C(=O)N[C@@H](CCCNC(=N)N)C(=O)N[C@@H](Cc1ccc(O)cc1)C(=O)N[C@@H](Cc1ccc(O)cc1)C(=O)N[C@H](C(=O)N[C@@H](C)C(=O)N[C@@H](CC(C)C)C(=O)N[C@@H](CCCNC(=N)N)C(=O)N[C@@H](Cc1c[nH]cn1)C(=O)N[C@@H](Cc1ccc(O)cc1)C(=O)N[C@@H](Cc1ccc(O)cc1)C(=O)N[C@@H](CC(N)=O)C(=O)N[C@@H](Cc1c[nH]c2ccccc12)C(=O)N[C@@H](CC(C)C)C(=O)N[C@H](C(=O)N[C@@H](CCCNC(=N)N)C(=O)N[C@@H](CCC(N)=O)C(=O)N[C@@H](CCCNC(=N)N)C(=O)N[C@@H](Cc1ccc(O)cc1)C(N)=O)[C@@H](C)O)C(C)C` [Compound 135, N{alpha-4}-(3-methylbutanoyl)-N{epsilon-7}-(6-[(4S)-4-carboxy-4-(17-carboxyheptadecanamido)butanamido]hexanoyl)-[4A,7K,9E,10A,11A,13E,17I,18Q,22V,23A,28Y,30W,31L]-hPYY(4-36)] (Isovaleryl-APEK([Ahx-γGlu-C18 diacid])PEAAAEPEEIQRYYVALRHYYNWLTRQRY-NH2), the inhibition constant Ki in series [1] amounted to 3.83 nM. In addition, in the series “Solubility determination”, the “Sol6” value worked out at 0.2 mg/mL and the “Sol7” value is more than 10.0 mg/mL.

Regarding `CC[C@H](C)[C@H](NC(=O)[C@H](Cc1ccc(O)cc1)NC(=O)[C@H](Cc1ccc(O)cc1)NC(=O)[C@H](CCCNC(=N)N)NC(=O)[C@H](CCC(N)=O)NC(=O)[C@H](CC(C)C)NC(=O)[C@H](CCC(=O)O)NC(=O)[C@H](CCC(=O)O)NC(=O)[C@@H]1CCCN1C(=O)[C@@H](NC(=O)[C@H](C)NC(=O)[C@H](CC(=O)O)NC(=O)[C@H](CCC(=O)O)NC(=O)[C@H](CCC(=O)O)NC(=O)[C@@H]1CCCN1C(=O)[C@H](CCCCNC(=O)CCCCCNC(=O)CC[C@H](NC(=O)CCCCCCCCCCCCCCCCC(=O)O)C(=O)O)NC(=O)[C@H](C)NC(=O)[C@@H]1CCCN1C(=O)[C@H](C)NC(=O)CC(C)C)[C@@H](C)O)C(=O)N[C@@H](CO)C(=O)N[C@@H](CC(C)C)C(=O)N[C@@H](CCCNC(=N)N)C(=O)N[C@@H](Cc1c[nH]cn1)C(=O)N[C@@H](Cc1ccc(O)cc1)C(=O)N[C@@H](Cc1ccc(O)cc1)C(=O)N[C@@H](CC(N)=O)C(=O)N[C@@H](Cc1c[nH]c2ccccc12)C(=O)N[C@@H](CC(C)C)C(=O)N[C@H](C(=O)N[C@@H](CCCNC(=N)N)C(=O)N[C@@H](CCC(N)=O)C(=O)N[C@@H](CCCNC(=N)N)C(=O)N[C@@H](Cc1ccc(O)cc1)C(N)=O)[C@@H](C)O` [Compound 190, N{alpha-4}-(3-methylbutanoyl)-N{epsilon-7}-(6-[(4S)-4-carboxy-4-(17-carboxyheptadecanamido)butanamido]hexanoyl)-[4A,6A,7K,9E,13T,18Q,22I,28Y,30W,31L]-hPYY(4-36)], in series [1], the inhibition constant (Ki) is 1.95 nM. In “Solubility determination”, the “Sol6” value was determined as 8.4 mg/mL and the “Sol7” value was 8.4 mg/mL.

Turning to `CC(C)CC(=O)N[C@@H](C)C(=O)N1CCC[C@H]1C(=O)N[C@@H](CCC(=O)O)C(=O)N[C@@H](CCCCNC(=O)CCCCCNC(=O)CC[C@H](NC(=O)CCCCCCCCCCCCCCCCC(=O)O)C(=O)O)C(=O)N1CCC[C@H]1C(=O)N[C@@H](CCC(=O)O)C(=O)N[C@@H](CCC(=O)O)C(=O)N[C@@H](CC(=O)O)C(=O)N[C@@H](C)C(=O)N[C@H](C(=O)N1CCC[C@H]1C(=O)N[C@@H](CCC(=O)O)C(=O)N[C@@H](CCC(=O)O)C(=O)N[C@H](C(=O)N[C@@H](CCC(N)=O)C(=O)N[C@@H](CCCNC(=N)N)C(=O)N[C@@H](Cc1ccc(O)cc1)C(=O)N[C@@H](Cc1ccc(O)cc1)C(=O)N[C@H](C(=O)N[C@@H](CO)C(=O)N[C@@H](CC(C)C)C(=O)N[C@@H](CCCNC(=N)N)C(=O)N[C@@H](Cc1c[nH]cn1)C(=O)N[C@@H](Cc1ccc(O)cc1)C(=O)N[C@@H](Cc1ccc(O)cc1)C(=O)N[C@@H](CC(N)=O)C(=O)N[C@@H](Cc1c[nH]c2ccccc12)C(=O)N[C@@H](CC(C)C)C(=O)N[C@H](C(=O)N[C@@H](CCCNC(=N)N)C(=O)N[C@@H](CCC(N)=O)C(=O)N[C@@H](CCCNC(=N)N)C(=O)N[C@@H](Cc1ccc(O)cc1)C(N)=O)[C@@H](C)O)C(C)C)C(C)C)[C@@H](C)O` [Compound 58, N{alpha-4}-(3-methylbutanoyl)-N{epsilon-7}-(6-[(4S)-4-carboxy-4-(17-carboxyheptadecanamido)butanamido]hexanoyl)-[4A,7K,9E,13T,17V,18Q,22V,28Y,30W,31L]-hPYY(4-36)], the Ki in series [1] turned out to be 3.46 nM. Moreover, in the series “Solubility determination”, the “Sol6” value was 8.6 mg/mL and the “Sol7” value turned out to be 8.8 mg/mL.

Regarding `CC(C)CC(=O)N[C@@H](C)C(=O)N1CCC[C@H]1C(=O)N[C@@H](CCC(=O)O)C(=O)N[C@@H](CCCCNC(=O)CCCCCNC(=O)CC[C@H](NC(=O)CCCCCCCCCCCCCCCCC(=O)O)C(=O)O)C(=O)N1CCC[C@H]1C(=O)N[C@@H](CCC(=O)O)C(=O)N[C@@H](CCC(=O)O)C(=O)N[C@@H](CC(=O)O)C(=O)N[C@@H](C)C(=O)N[C@@H](CCC(=O)O)C(=O)N1CCC[C@H]1C(=O)N[C@@H](CCC(=O)O)C(=O)N[C@@H](CCC(=O)O)C(=O)N[C@@H](CC(C)C)C(=O)N[C@@H](CCC(N)=O)C(=O)N[C@@H](CCCNC(=N)N)C(=O)N[C@@H](Cc1ccc(O)cc1)C(=O)N[C@@H](Cc1ccc(O)cc1)C(=O)N[C@H](C(=O)N[C@@H](CO)C(=O)N[C@@H](CC(C)C)C(=O)N[C@@H](CCCNC(=N)N)C(=O)N[C@@H](Cc1c[nH]cn1)C(=O)N[C@@H](Cc1ccc(O)cc1)C(=O)N[C@@H](Cc1ccc(O)cc1)C(=O)N[C@@H](CCC(N)=O)C(=O)N[C@@H](Cc1c[nH]c2ccccc12)C(=O)N[C@@H](CC(C)C)C(=O)N[C@H](C(=O)N[C@@H](CCCNC(=N)N)C(=O)N[C@@H](CCC(N)=O)C(=O)N[C@@H](CCCNC(=N)N)C(=O)N[C@@H](Cc1ccc(O)cc1)C(N)=O)[C@@H](C)O)[C@@H](C)O` [Compound 41, N{alpha-4}-(3-methylbutanoyl)-N{epsilon-7}-(6-[(4S)-4-carboxy-4-(17-carboxyheptadecanamido)butanamido]hexanoyl)[4A,7K,9E,13E,18Q,22T,28Y,30W,31L]-hPYY(4-36)] (Isovaleryl-APEK([Ahx-γGlu-C18 diacid])PEEDAEPEELQRYYTSLRHYYQWLTRQRY-NH2), the inhibition constant Ki in series [1] worked out at 19.8 nM. Besides, in the series “Solubility determination”, the “Sol6” value came out at 9.8 mg/mL and the “Sol7” value came out at 10.0 mg/mL.

As for `CC(C)CC(=O)N[C@@H](C)C(=O)N1CCC[C@H]1C(=O)N[C@@H](CCC(=O)O)C(=O)N[C@@H](CCCCNC(=O)CCCCCNC(=O)CC[C@H](NC(=O)CCCCCCCCCCCCCCCCC(=O)O)C(=O)O)C(=O)N1CCC[C@H]1C(=O)N[C@@H](CCC(=O)O)C(=O)N[C@@H](CCC(=O)O)C(=O)N1CCC[C@H]1C(=O)N[C@@H](C)C(=O)N[C@H](C(=O)N1CCC[C@H]1C(=O)N[C@@H](CCC(=O)O)C(=O)N[C@@H](CCC(=O)O)C(=O)N[C@@H](CC(C)C)C(=O)N[C@@H](CCC(N)=O)C(=O)N[C@@H](CCCNC(=N)N)C(=O)N[C@@H](Cc1ccc(O)cc1)C(=O)N[C@@H](Cc1ccc(O)cc1)C(=O)N[C@H](C(=O)N[C@@H](CO)C(=O)N[C@@H](CC(C)C)C(=O)N[C@@H](CCCNC(=N)N)C(=O)N[C@@H](Cc1c[nH]cn1)C(=O)N[C@@H](Cc1ccc(O)cc1)C(=O)N[C@@H](Cc1ccc(O)cc1)C(=O)N[C@@H](CC(N)=O)C(=O)N[C@@H](Cc1c[nH]c2ccccc12)C(=O)N[C@@H](CC(C)C)C(=O)N[C@H](C(=O)N[C@@H](CCCNC(=N)N)C(=O)N[C@@H](CCC(N)=O)C(=O)N[C@@H](CCCNC(=N)N)C(=O)N[C@@H](Cc1ccc(O)cc1)C(N)=O)[C@@H](C)O)C(C)C)[C@@H](C)O` [Compound 42, N{alpha-4}-(3-methylbutanoyl)-N{epsilon-7}-(6-[(4S)-4-carboxy-4-(17-carboxyheptadecanamido)butanamido]hexanoyl)[4A,7K,9E,11P,13T,18Q,22V,28Y,30W,31L]-hPYY(4-36)], the inhibitory constant (Ki) in series [1] came to 1.98 nM. For the same molecule, in the series “Solubility determination”, the “Sol6” value was determined as 9.8 mg/mL and the “Sol7” value worked out at 9.9 mg/mL.

Source of the values: patent US12391737B2, “Soluble NPY2 receptor agonists” (Boehringer Ingelheim International GmbH, priority 2020, dated 2025).
